ChEMBL document CHEMBL1949518, “Synthesis and biological evaluation of some new 2-pyrazolines bearing benzene sulfonamide moiety as potential anti-inflammatory and anti-cancer agents” (Eur J Med Chem, 2011)

Assays:
Rattus norvegicus [1] = assay: Antiinflammatory activity in Wistar rat assessed as inhibition of carrageenan-induced paw edema at 20 mg/kg, po administered 30 mins before carrageenan challenge measured after 5 hrs; assay type: functional
Rattus norvegicus [2] = assay: Antiinflammatory activity in Wistar rat assessed as inhibition of carrageenan-induced paw edema at 20 mg/kg, po administered 30 mins before carrageenan challenge measured after 3 hrs; assay type: functional
Rattus norvegicus [3] = assay: Ulcerogenic activity in fasted Wistar albino rat at 60 mg/kg, po administered as 3 dose measured after 6 hrs post last dose; assay type: toxicity, organism-based; design: dose 60 mg/kg, route oral; conditions: in vivo
Mus musculus [4] = assay: Toxicity in Swiss albino mouse assessed as mortality at 100 mg/kg, po measured up to 24 hrs; assay type: organism-based; design: dose 100 mg/kg, route oral; conditions: in vivo
Mus musculus [5] = assay: Toxicity in Swiss albino mouse assessed as behavioral change at 100 mg/kg, po measured up to 24 hrs; assay type: organism-based; design: dose 100 mg/kg, route oral; conditions: in vivo
[6] = biological target: Prostaglandin G/H synthase 1 (Bos taurus, UniProt O62664); assay: Inhibition of bovine COX1 assessed as PGE2 formation preincubated for 10 mins by ELISA
Sequence of Prostaglandin G/H synthase 1 (O62664 whole entry): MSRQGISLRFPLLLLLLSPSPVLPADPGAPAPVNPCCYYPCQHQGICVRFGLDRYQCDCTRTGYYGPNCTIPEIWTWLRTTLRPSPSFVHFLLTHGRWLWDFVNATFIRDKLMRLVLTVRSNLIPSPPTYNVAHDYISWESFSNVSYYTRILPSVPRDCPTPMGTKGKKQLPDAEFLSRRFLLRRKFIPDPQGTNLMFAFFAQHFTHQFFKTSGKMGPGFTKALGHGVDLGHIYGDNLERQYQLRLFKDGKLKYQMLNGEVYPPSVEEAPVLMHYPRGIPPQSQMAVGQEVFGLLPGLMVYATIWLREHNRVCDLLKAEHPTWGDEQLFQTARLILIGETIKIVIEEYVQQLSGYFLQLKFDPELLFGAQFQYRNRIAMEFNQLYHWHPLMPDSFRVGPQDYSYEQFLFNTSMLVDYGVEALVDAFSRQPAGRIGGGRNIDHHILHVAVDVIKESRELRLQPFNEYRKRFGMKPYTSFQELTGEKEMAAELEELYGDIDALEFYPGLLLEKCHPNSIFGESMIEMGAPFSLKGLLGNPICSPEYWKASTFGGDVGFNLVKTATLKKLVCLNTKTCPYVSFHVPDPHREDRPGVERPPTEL

| SMILES | inhibition in vivo at 20 mg/kg (Rattus norvegicus [1]) [%] | inhibition in vivo at 20 mg/kg (Rattus norvegicus [2]) [%] | Activity (Rattus norvegicus [3]) | Activity (Mus musculus [4]) | Activity (Mus musculus [5]) | IC50 [6] [µM] |
| --- | --- | --- | --- | --- | --- | --- |
| Cc1cc(O)c(C2=NN(c3ccc(S(N)(=O)=O)cc3)C(c3ccccc3)C2)c(C)c1Cl (stereo unspecified) | 36.4 | 20 | – | – | – | – |
| Cc1cc(O)c(C2=NN(c3ccc(S(N)(=O)=O)cc3)C(c3ccccc3Cl)C2)c(C)c1Cl (stereo unspecified) | 45.5 | 53 | – | – | – | – |
| Cc1cc(O)c(C2=NN(c3ccc(S(N)(=O)=O)cc3)C(c3ccccc3O)C2)c(C)c1Cl (stereo unspecified) | 75 | 79 | Non-toxic | Non-toxic | Non-toxic | 65.4 |
| COc1ccc(C2CC(c3c(O)cc(C)c(Cl)c3C)=NN2c2ccc(S(N)(=O)=O)cc2)cc1OC (stereo unspecified) | 45.5 | 26.7 | – | – | – | – |
| COc1cc(C2CC(c3c(O)cc(C)c(Cl)c3C)=NN2c2ccc(S(N)(=O)=O)cc2)cc(OC)c1OC (stereo unspecified) | 75 | 68.4 | – | – | – | – |
| Cc1ccc(-c2cc(C(F)(F)F)nn2-c2ccc(S(N)(=O)=O)cc2)cc1 [CELECOXIB] | 82 | 79.6 | – | – | – | – |
